# Laboratory results from patent US5254584A, “N-acetonylbenzamides and their use as fungicides” (Rohm and Haas Company, priority 1992, dated 1993).
# How the values were obtained:
# [1] = Tobacco root assay for phytotoxicity (in vitro root elongation); details: 7 days, 27° C., read-out: Tob. EC50
# Procedure: The compounds of Examples 1-20 were tested in vitro for fungicidal activity and phytotoxicity.
# B. The compounds were tested in vitro for phytotoxicity in a tobacco root elongation assay.
# Tobacco root assay for Phytotoxicity:
# A dilution series of test compound was prepared in dimethylsulfoxide and 20 ul of each dilution was added to 20 ml of molten nutrient medium, consisting of Murashige and Skoog salt base, 2% sucrose and 1% agar, to give the desired concentrations of test compound. The mixtures were poured immediately into 9 cm diameter petri dishes. Surface-sterilized tobacco seeds were placed on each plate (20 seeds per plate) and the plates incubated in a vertical position in a 27° C. incubator with a 16 hour photoperiod. After 7 days the mean root lengths were calculated, and EC50 values determined from dose response curves.
# Results of the tobacco root assay are set forth below in Table 3 as Tob. EC50 (ppm).
# lettuce plants = experiment: In vivo phytotoxic activity, foliar spray, lettuce; parameters: key: +: indicating presence of a plant growth regulatory effect as compared to a control to which a solvent mixture (acetone/water/methanol) lacking the test compound was applied; 0: A zero indicates no apparent effect; details: foliar spray 2200 g/Ha, seven days after application
# Procedure: (§1) The compounds of Examples 1 and 12 were tested in vivo for phytotoxic activity by applying the compounds to the foliage of cucumber, tomato, bean, lettuce and strawberry plants as a spray at a rate of 2200 g/Ha. The plants were evaluated seven days after spray application of the compounds.
# (§2) Phototoxicity scores are set forth below in Table 6. The phytotoxicity scores use a symbol, "+", indicating presence of a plant growth regulatory effect as compared to a control to which a solvent mixture (acetone/water/methanol) lacking the test compound was applied. A zero indicates no apparent effect. Each score is a composite representing the mode value for three replicate plants.
# tomato plants = experiment: In vivo phytotoxic activity, foliar spray, tomato; parameters: key: +: indicating presence of a plant growth regulatory effect as compared to a control to which a solvent mixture (acetone/water/methanol) lacking the test compound was applied; 0: A zero indicates no apparent effect; details: foliar spray 2200 g/Ha, seven days after application
# Procedure: as §1, §2
# strawberry plants = experiment: In vivo phytotoxic activity, foliar spray, strawberry; parameters: key: +: indicating presence of a plant growth regulatory effect as compared to a control to which a solvent mixture (acetone/water/methanol) lacking the test compound was applied; 0: A zero indicates no apparent effect; details: foliar spray 2200 g/Ha, seven days after application
# Procedure: as §1, §2
# Botrytis cinerea = experiment: Fungitoxicity assay against Botrytis cinerea (in vitro, colony diameter); type: cell-based; details: 48 hours at 25° C., read-out: Botrytis EC50
# Procedure: The compounds of Examples 1-20 were tested in vitro for fungicidal activity and phytotoxicity. A. The compounds were tested in vitro for fungicidal activity against Pythium ultimum, Botrytis cinerea and Venturia inaequalis. Fungitoxicity assay against Botrytis cinerea: […] The mixtures were poured immediately into 9 centimeter (cm) diameter petri dishes. Two replicate plates were used for each treatment. Each plate was inoculated with a 7 mm diameter plug taken from the growing edge of a 5 day old culture of B. cinerea on potato dextrose agar. […] Results of the testing for fungicidal activity against the above named fungi are set forth below in Table 3 as Pythium EC50 (ppm), Botrytis EC50 (ppm) and Venturia MIC (ppm), respectively.
# cucumber plants = experiment: In vivo phytotoxic activity, foliar spray, cucumber; parameters: key: +: indicating presence of a plant growth regulatory effect as compared to a control to which a solvent mixture (acetone/water/methanol) lacking the test compound was applied; 0: A zero indicates no apparent effect; details: foliar spray 2200 g/Ha, seven days after application
# Procedure: as §1, §2
# Pythium ultimum = experiment: Fungitoxicity assay against Pythium ultimum (in vitro, mycelial dry weight); type: cell-based; details: Globisporangium ultimum, 48 hours at 25° C., read-out: Pythium EC50
# Procedure: The compounds of Examples 1-20 were tested in vitro for fungicidal activity and phytotoxicity. A. The compounds were tested in vitro for fungicidal activity against Pythium ultimum, Botrytis cinerea and Venturia inaequalis. Fungitoxicity assay against Pythium ultimum: A dilution series of test compound was prepared in dimethylsulfoxide, and 0.1 milliliter (ml) of each dilution was added to 19.9 ml of a liquid asparagine-sucrose broth ([…]. and Katznelson, K., 1971, Can. J. […] Each plate was inoculated with a mycelial plug, 7 millimeters (mm) in diameter, taken from the growing edge of a culture of Pythium ultimum grown on potato dextrose agar. Two replicate plates were used for each treatment. The increase in mycelial dry weight was determined after growth for 48 hours at 25° C. with shaking on a gyrotary shaker at 60 revolutions per minute (rpm). EC50 values were calculated from dose response curves. As used herein, the terminology "EC50" means the concentration of test compound required to inhibit growth by 50% as compared to a control lacking the test compound. Results of the testing for fungicidal activity against the above named fungi are set forth below in Table 3 as Pythium EC50 (ppm), Botrytis EC50 (ppm) and Venturia MIC (ppm), respectively.
# Venturia inaequalis = experiment: Fungitoxicity assay against Venturia inaequalis (in vitro, microtiter MIC); type: cell-based; details: 168 h, minimum inhibitory concentration, 7 days at 25° C.
# Procedure: The compounds of Examples 1-20 were tested in vitro for fungicidal activity and phytotoxicity. A. The compounds were tested in vitro for fungicidal activity against Pythium ultimum, Botrytis cinerea and Venturia inaequalis. Fungitoxicity assay against Venturia inaequalis: Test compounds were dissolved in dimethylsulfoxide at 1 milligram per milliliter (mg/ml), and 50 ul added to 950 ul of yeast extract-dextrose medium (YED, 0.4% yeast extract, 2% dextrose) to give 50 part per million (ppm) solutions. Minimum inhibitory concentration (MIC) values were determined using a microtiter assay with twofold serial dilutions of the prepared 50 ppm solutions (100 ul) in YED medium. Inoculum consisted of a spore suspension of V. inaequalis in YED medium at 2.5×10^5 spores per ml. […] Results of the testing for fungicidal activity against the above named fungi are set forth below in Table 3 as Pythium EC50 (ppm), Botrytis EC50 (ppm) and Venturia MIC (ppm), respectively.
# bean plants = experiment: In vivo phytotoxic activity, foliar spray, bean; parameters: key: +: indicating presence of a plant growth regulatory effect as compared to a control to which a solvent mixture (acetone/water/methanol) lacking the test compound was applied; 0: A zero indicates no apparent effect; details: foliar spray 2200 g/Ha, seven days after application
# Procedure: as §1, §2
structure (smiles),measurement,setting,value
"CCC(C)(NC(=O)c1cccc(C=NOC)c1)C(=O)CCl (stereo not drawn) [Example 1, 3-(3'-Methoxyiminomethylbenzamido)-1-chloro-3-methylpentan-2-one]",IC50 at 168 h,[1],1.86 µg/mL
same,"phytotoxicity score, Lettuce",lettuce plants,0
same,"phytotoxicity score, Tomato",tomato plants,0
same,"phytotoxicity score, Strawberry",strawberry plants,+
same,IC50,Botrytis cinerea,9.5 µg/mL
same,"phytotoxicity score, Cucumber",cucumber plants,0
same,IC50,Pythium ultimum,0.31 µg/mL
same,MIC,Venturia inaequalis,1.56 µg/mL
same,"phytotoxicity score, Bean",bean plants,0
